According to ChEMBL document CHEMBL4396865, “Current advances of triazole alcohols derived from fluconazole: Design, in vitro and in silico studies” (2019):
≈ marks a conversion by molar mass, not a printed value.

How the values were obtained:
Assay type in all cases: functional
Pichia kudriavzevii [1] = assay: Antifungal activity against Candida krusei CK506
Candida albicans [2] = assay: Antifungal activity against Candida albicans CAAL-74
Candida parapsilosis [3] = assay: Antifungal activity against Candida parapsilosis CAPA1
Candida parapsilosis [4] = assay: Antifungal activity against Candida parapsilosis CAPA2
Pichia kudriavzevii [5] = assay: Antifungal activity against Candida krusei CK8
Candida albicans [6] = assay: Antifungal activity against Candida albicans DSY735
Aspergillus fumigatus = assay: Antifungal activity against Aspergillus fumigatus AF98003
Candida albicans [7] = assay: Antifungal activity against Candida albicans CA98001
Nakaseomyces glabratus = assay: Antifungal activity against Candida glabrata CG468
Candida albicans [8] = assay: Antifungal activity against Candida albicans after 48 hrs by NCCLS protocol based method
Candida parapsilosis [9] = assay: Antifungal activity against Candida parapsilosis after 48 hrs by NCCLS protocol based method; conditions: Lodderomyces parapsilosis
[10] = Pichia kudriavzevii, CK506, read-out: MIC
[11] = Candida albicans, CAAL-74, read-out: MIC
[12] = Lodderomyces parapsilosis, CAPA1, read-out: MIC
[13] = Lodderomyces parapsilosis, CAPA2, read-out: MIC
[14] = Pichia kudriavzevii, CK8, read-out: MIC
[15] = Candida albicans, DSY735, read-out: MIC
[16] = Candida albicans, CA98001, read-out: MIC
[17] = Nakaseomyces glabratus, CG468, read-out: MIC

Compound	MIC (Pichia kudriavzevii [1]; [10])	MIC (Candida albicans [2]; [11])	MIC (Candida parapsilosis [3]; [12])	MIC (Candida parapsilosis [4]; [13])	MIC (Pichia kudriavzevii [5]; [14])	MIC (Candida albicans [6]; [15])	MIC (Aspergillus fumigatus)	MIC (Candida albicans [7]; [16])	MIC (Nakaseomyces glabratus; [17])	MIC (Candida albicans [8])	MIC (Candida parapsilosis [9])	MIC (Pichia kudriavzevii [1])	MIC (Candida albicans [2])	MIC (Candida parapsilosis [3])	MIC (Candida parapsilosis [4])	MIC (Pichia kudriavzevii [5])	MIC (Candida albicans [6])	MIC (Candida albicans [7])	MIC (Nakaseomyces glabratus)
CCCc1ccc(NS(=O)(=O)c2ccc(CN(C)CC(O)(Cn3cncn3)c3ccc(F)cc3F)cc2)cc1 (centres undefined)	0.001 to 0.069 µg/mL (≈ 0.0018 to 0.124 µM)	0.001 to 0.069 µg/mL (≈ 0.0018 to 0.124 µM)	0.001 to 0.069 µg/mL (≈ 0.0018 to 0.124 µM)	0.001 to 0.069 µg/mL (≈ 0.0018 to 0.124 µM)	0.001 to 0.069 µg/mL (≈ 0.0018 to 0.124 µM)	0.001 to 0.069 µg/mL (≈ 0.0018 to 0.124 µM)	0.767 to 3.57 µg/mL (≈ 1.38 to 6.42 µM)	0.001 to 0.069 µg/mL (≈ 0.0018 to 0.124 µM)	0.001 to 0.069 µg/mL (≈ 0.0018 to 0.124 µM)										
CN(Cc1ccc(S(N)(=O)=O)cc1)CC(O)(Cn1cncn1)c1ccc(F)cc1F (centres undefined)	0.001 to 0.069 µg/mL (≈ 0.00229 to 0.158 µM)	0.001 to 0.069 µg/mL (≈ 0.00229 to 0.158 µM)	0.001 to 0.069 µg/mL (≈ 0.00229 to 0.158 µM)	0.001 to 0.069 µg/mL (≈ 0.00229 to 0.158 µM)	0.001 to 0.069 µg/mL (≈ 0.00229 to 0.158 µM)	0.001 to 0.069 µg/mL (≈ 0.00229 to 0.158 µM)	0.767 to 3.57 µg/mL (≈ 1.75 to 8.16 µM)	0.001 to 0.069 µg/mL (≈ 0.00229 to 0.158 µM)	0.001 to 0.069 µg/mL (≈ 0.00229 to 0.158 µM)										
CC(C)NS(=O)(=O)c1ccc(CN(C)CC(O)(Cn2cncn2)c2ccc(F)cc2F)cc1 (centres undefined)	0.001 to 0.069 µg/mL (≈ 0.00209 to 0.144 µM)	0.001 to 0.069 µg/mL (≈ 0.00209 to 0.144 µM)	0.001 to 0.069 µg/mL (≈ 0.00209 to 0.144 µM)	0.001 to 0.069 µg/mL (≈ 0.00209 to 0.144 µM)	0.001 to 0.069 µg/mL (≈ 0.00209 to 0.144 µM)	0.001 to 0.069 µg/mL (≈ 0.00209 to 0.144 µM)	0.767 to 3.57 µg/mL (≈ 1.6 to 7.44 µM)	0.001 to 0.069 µg/mL (≈ 0.00209 to 0.144 µM)	0.001 to 0.069 µg/mL (≈ 0.00209 to 0.144 µM)										
C[C@H](CCCn1cc(CC(O)(Cn2cncn2)c2ccc(F)cc2F)nn1)[C@H]1CC[C@H]2[C@@H]3[C@H](O)C[C@@H]4C[C@H](O)CC[C@]4(C)[C@H]3C[C@H](O)[C@]12C (some centres undefined)										3.12 to 6.25 µg/mL (≈ 4.57 to 9.15 µM)	3.12 to 6.25 µg/mL (≈ 4.57 to 9.15 µM)								
CN(Cc1ccc(S(=O)(=O)Nc2ccccc2)cc1)CC(O)(Cn1cncn1)c1ccc(F)cc1F (centres undefined)	0.001 to 0.069 µg/mL (≈ 0.00195 to 0.134 µM)	0.001 to 0.069 µg/mL (≈ 0.00195 to 0.134 µM)	0.001 to 0.069 µg/mL (≈ 0.00195 to 0.134 µM)	0.001 to 0.069 µg/mL (≈ 0.00195 to 0.134 µM)	0.001 to 0.069 µg/mL (≈ 0.00195 to 0.134 µM)	0.001 to 0.069 µg/mL (≈ 0.00195 to 0.134 µM)	0.767 to 3.57 µg/mL (≈ 1.49 to 6.95 µM)	0.001 to 0.069 µg/mL (≈ 0.00195 to 0.134 µM)	0.001 to 0.069 µg/mL (≈ 0.00195 to 0.134 µM)										
CCCNS(=O)(=O)c1ccc(CN(C)CC(O)(Cn2cncn2)c2ccc(F)cc2F)cc1 (centres undefined)	0.001 to 0.069 µg/mL (≈ 0.00209 to 0.144 µM)	0.001 to 0.069 µg/mL (≈ 0.00209 to 0.144 µM)	0.001 to 0.069 µg/mL (≈ 0.00209 to 0.144 µM)	0.001 to 0.069 µg/mL (≈ 0.00209 to 0.144 µM)	0.001 to 0.069 µg/mL (≈ 0.00209 to 0.144 µM)	0.001 to 0.069 µg/mL (≈ 0.00209 to 0.144 µM)	0.767 to 3.57 µg/mL (≈ 1.6 to 7.44 µM)	0.001 to 0.069 µg/mL (≈ 0.00209 to 0.144 µM)	0.001 to 0.069 µg/mL (≈ 0.00209 to 0.144 µM)										
CN(Cc1ccc(S(=O)(=O)Nc2ccc([N+](=O)[O-])cc2)cc1)CC(O)(Cn1cncn1)c1ccc(F)cc1F (centres undefined)	0.001 to 0.069 µg/mL (≈ 0.00179 to 0.124 µM)	0.001 to 0.069 µg/mL (≈ 0.00179 to 0.124 µM)	0.001 to 0.069 µg/mL (≈ 0.00179 to 0.124 µM)	0.001 to 0.069 µg/mL (≈ 0.00179 to 0.124 µM)	0.001 to 0.069 µg/mL (≈ 0.00179 to 0.124 µM)	0.001 to 0.069 µg/mL (≈ 0.00179 to 0.124 µM)	0.767 to 3.57 µg/mL (≈ 1.37 to 6.39 µM)	0.001 to 0.069 µg/mL (≈ 0.00179 to 0.124 µM)	0.001 to 0.069 µg/mL (≈ 0.00179 to 0.124 µM)										
CC(C)c1ccc(NS(=O)(=O)c2ccc(CN(C)CC(O)(Cn3cncn3)c3ccc(F)cc3F)cc2)cc1 (centres undefined)	0.001 to 0.069 µg/mL (≈ 0.0018 to 0.124 µM)	0.001 to 0.069 µg/mL (≈ 0.0018 to 0.124 µM)	0.001 to 0.069 µg/mL (≈ 0.0018 to 0.124 µM)	0.001 to 0.069 µg/mL (≈ 0.0018 to 0.124 µM)	0.001 to 0.069 µg/mL (≈ 0.0018 to 0.124 µM)	0.001 to 0.069 µg/mL (≈ 0.0018 to 0.124 µM)	0.767 to 3.57 µg/mL (≈ 1.38 to 6.42 µM)	0.001 to 0.069 µg/mL (≈ 0.0018 to 0.124 µM)	0.001 to 0.069 µg/mL (≈ 0.0018 to 0.124 µM)										
C[C@H](CCCn1cc(CC(O)(Cn2cncn2)c2ccc(F)cc2F)nn1)[C@H]1CC[C@H]2[C@@H]3CC[C@@H]4C[C@H](O)CC[C@]4(C)[C@H]3C[C@H](O)[C@]12C (some centres undefined)										3.12 to 6.25 µg/mL (≈ 4.68 to 9.37 µM)	3.12 to 6.25 µg/mL (≈ 4.68 to 9.37 µM)								

The remaining lines, values ahead:

MIC (Pichia kudriavzevii [1]; [10])	MIC (Candida albicans [2]; [11])	MIC (Candida parapsilosis [3]; [12])	MIC (Candida parapsilosis [4]; [13])	MIC (Pichia kudriavzevii [5]; [14])	MIC (Candida albicans [6]; [15])	MIC (Aspergillus fumigatus)	MIC (Candida albicans [7]; [16])	MIC (Nakaseomyces glabratus; [17])	MIC (Candida albicans [8])	MIC (Candida parapsilosis [9])	MIC (Pichia kudriavzevii [1])	MIC (Candida albicans [2])	MIC (Candida parapsilosis [3])	MIC (Candida parapsilosis [4])	MIC (Pichia kudriavzevii [5])	MIC (Candida albicans [6])	MIC (Candida albicans [7])	MIC (Nakaseomyces glabratus)	Compound
									3.12 to 6.25 µg/mL (≈ 4.39 to 8.79 µM)	3.12 to 6.25 µg/mL (≈ 4.39 to 8.79 µM)									COC(=O)CC[C@@H](C)[C@H]1CC[C@H]2[C@@H]3[C@H](O)C[C@@H]4C[C@@H](n5cc(CC(O)(Cn6cncn6)c6ccc(F)cc6F)nn5)CC[C@]4(C)[C@H]3C[C@H](O)[C@]12C (some centres undefined)
0.001 to 0.069 µg/mL (≈ 0.00203 to 0.14 µM)	0.001 to 0.069 µg/mL (≈ 0.00203 to 0.14 µM)	0.001 to 0.069 µg/mL (≈ 0.00203 to 0.14 µM)	0.001 to 0.069 µg/mL (≈ 0.00203 to 0.14 µM)	0.001 to 0.069 µg/mL (≈ 0.00203 to 0.14 µM)	0.001 to 0.069 µg/mL (≈ 0.00203 to 0.14 µM)	0.767 to 3.57 µg/mL (≈ 1.55 to 7.23 µM)	0.001 to 0.069 µg/mL (≈ 0.00203 to 0.14 µM)	0.001 to 0.069 µg/mL (≈ 0.00203 to 0.14 µM)											CC(C)CNS(=O)(=O)c1ccc(CN(C)CC(O)(Cn2cncn2)c2ccc(F)cc2F)cc1 (centres undefined)
									3.12 to 6.25 µg/mL (≈ 4.49 to 8.99 µM)	3.12 to 6.25 µg/mL (≈ 4.49 to 8.99 µM)									COC(=O)CC[C@@H](C)[C@H]1CC[C@H]2[C@@H]3CC[C@@H]4C[C@@H](n5cc(CC(O)(Cn6cncn6)c6ccc(F)cc6F)nn5)CC[C@]4(C)[C@H]3C[C@H](O)[C@]12C (some centres undefined)
						2.76 µg/mL (≈ 6.01 µM)					0.001 to 1.32 µg/mL	0.001 to 1.32 µg/mL	0.001 to 1.32 µg/mL	0.001 to 1.32 µg/mL	0.001 to 1.32 µg/mL	0.001 to 1.32 µg/mL	0.001 to 1.32 µg/mL	0.001 to 1.32 µg/mL	CN(Cc1ccc(-c2ccc(C#N)cc2)cc1)CC(O)(Cn1cncn1)c1ccc(F)cc1F (centres undefined)
